Test results as given in patent publication US20040133936A1, “Enzyme” (priority 2000, published 2004).

Experiments:
[1] = target: T1, myrosinase from the cabbage aphid B. brassicae (Brevicoryne brassicae, UniProt Q95X01); conditions: substrates 2-propenyl and 2-hydroxy-3-butenyl glucosinolate; cited from earlier work
T1 sequence (Q95X01 1-464): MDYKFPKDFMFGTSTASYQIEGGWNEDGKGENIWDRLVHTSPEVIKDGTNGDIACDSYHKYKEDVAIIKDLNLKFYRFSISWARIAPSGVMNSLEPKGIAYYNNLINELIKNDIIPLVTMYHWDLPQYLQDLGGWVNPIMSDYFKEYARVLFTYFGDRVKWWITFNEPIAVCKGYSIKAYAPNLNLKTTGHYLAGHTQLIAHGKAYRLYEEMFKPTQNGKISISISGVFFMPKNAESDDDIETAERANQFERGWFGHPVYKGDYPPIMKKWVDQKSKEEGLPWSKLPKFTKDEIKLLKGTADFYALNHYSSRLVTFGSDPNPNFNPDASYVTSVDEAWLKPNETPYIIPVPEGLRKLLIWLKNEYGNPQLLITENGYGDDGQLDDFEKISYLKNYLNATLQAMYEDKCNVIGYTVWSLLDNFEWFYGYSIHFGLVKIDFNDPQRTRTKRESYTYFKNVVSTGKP

[2] = system: myrosinase from the mustard plant Brassica nigra; conditions: substrates 2-propenyl and 2-hydroxy-3-butenyl glucosinolate; cited from earlier work
[3] = target: T2, myrosinase from the cabbage aphid (Brevicoryne brassicae) (Brevicoryne brassicae, UniProt Q95X01); assay: Kinetic studies of aphid myrosinase (glucose released by glucosinolate hydrolysis); format: biochemical; conditions: for Km: substrate, read-out: apparent Km of the aphid myrosinase
T2 construct: The myrosinase from freeze-dried aphids was purified in five steps; from tissue; host or cells: whole freeze-dried Brevicoryne brassicae aphids
T2 sequence (Q95X01 1-464): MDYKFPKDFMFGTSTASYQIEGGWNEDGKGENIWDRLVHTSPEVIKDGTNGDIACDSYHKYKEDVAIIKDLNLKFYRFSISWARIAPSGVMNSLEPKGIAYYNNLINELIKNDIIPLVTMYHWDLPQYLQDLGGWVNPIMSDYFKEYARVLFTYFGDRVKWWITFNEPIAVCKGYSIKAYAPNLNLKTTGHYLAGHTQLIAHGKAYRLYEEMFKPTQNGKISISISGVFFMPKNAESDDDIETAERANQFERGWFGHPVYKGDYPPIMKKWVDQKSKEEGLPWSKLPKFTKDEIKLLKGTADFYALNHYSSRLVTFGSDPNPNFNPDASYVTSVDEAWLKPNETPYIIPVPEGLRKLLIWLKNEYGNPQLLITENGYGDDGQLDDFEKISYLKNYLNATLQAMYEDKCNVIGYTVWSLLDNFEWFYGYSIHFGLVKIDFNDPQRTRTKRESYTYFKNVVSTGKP
Experimental: (§1) An assay based on the determination of glucose released by the hydrolysis of 2-propenyl glucosinolate (sinigrin) by the aphid myrosinase was used routinely to determine enzyme activity during protein purification. GOD-Perid test reagents were purchased from Boehringer Mannheim.
Enzyme solution and sinigrin (1.08 mM) in 500 μl of sodium citrate buffer (100 mM, pH 5.5) was incubated at 30° C. for 20 min. The reaction was stopped by addition of 40 μl 3M HCl (aq) and GOD-PERID reagent (2.5 ml) added to the reaction mixture and incubated for 15 min at 37° C. The optical density was read at 346 nm and the glucose concentration calculated from a calibration graph.
The present inventors have performed a number of kinetic studies on the myrosinase from the cabbage aphid (Brevicoryne brassicae) which they have characterised. […] Like the cabbage aphid, the turnip aphid (Lipaphis erysimi) myrosinase was not activated by ascorbate in the concentration range 0.1-20 mM. The KM for sinigrin is 0.42 mM for the white mustard (Sinapis alba) myrosinase.

[4] = target: white mustard (Sinapis alba) myrosinase (Sinapis alba, UniProt P29736); assay: KM of white mustard myrosinase; format: biochemical; conditions: substrate
Sequence of white mustard (Sinapis alba) myrosinase (P29736 whole entry): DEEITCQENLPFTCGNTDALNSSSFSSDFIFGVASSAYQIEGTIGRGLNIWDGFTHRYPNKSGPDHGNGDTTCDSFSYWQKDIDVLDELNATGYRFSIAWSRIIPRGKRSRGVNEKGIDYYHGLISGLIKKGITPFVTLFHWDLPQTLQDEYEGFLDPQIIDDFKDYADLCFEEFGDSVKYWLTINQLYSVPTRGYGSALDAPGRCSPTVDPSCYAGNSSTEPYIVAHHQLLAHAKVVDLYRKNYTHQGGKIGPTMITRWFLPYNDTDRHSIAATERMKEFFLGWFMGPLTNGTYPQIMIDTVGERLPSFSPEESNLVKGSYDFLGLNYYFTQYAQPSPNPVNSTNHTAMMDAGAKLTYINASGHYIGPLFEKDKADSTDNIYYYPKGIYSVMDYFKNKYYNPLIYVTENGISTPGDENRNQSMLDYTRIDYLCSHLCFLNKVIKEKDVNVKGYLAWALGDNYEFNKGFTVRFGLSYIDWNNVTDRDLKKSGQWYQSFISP

plant myrosinase = conditions: cited from earlier work
[5] = target: T3, native enzyme (myrosinase) from white mustard seed (Sinapis alba) (Sinapis alba, UniProt P29736); conditions: stable glycosyl-enzyme intermediate at the active site; cited from earlier work
T3 construct: the native enzyme from white mustard seed (Sinapis alba) has been crystallised; host or cells: white mustard seed
T3 sequence (P29736 whole entry): as above

[6] = system: turnip aphid (Lipaphis erysimi) myrosinase; assay: Ascorbate activation of turnip aphid myrosinase; format: biochemical; conditions: concentration range 0.1-20 mM
[7] = Myrosinase micro assay (glucose released by hydrolysis of sinigrin); format: biochemical; conditions: sinigrin 1.08 mM, pH 5.5, 30° C.
Experimental: as §1
Enzyme solution and sinigrin (1.08 mM) in 500 μl of sodium citrate buffer (100 mM, pH 5.5) was incubated at 30° C. for 20 min. The reaction was stopped by addition of 40 μl 3M HCl (aq) and GOD-PERID reagent (2.5 ml) was added to the reaction mixture and incubated for 15 min at 37° C. The optical density was read at 346 nm and the glucose concentration calculated from a calibration graph.

Q: Which results are given for `OC[C@H]1NC[C@H](O)[C@@H](O)[C@@H]1O` [DNJ, 1-deoxynojirimycin]?
A: inhibition of aphid myrosinase [1]: inhibited; inhibition of plant myrosinase [2]: not significantly

Q: For `C=CC/C(=N/OS(=O)(=O)O)S[C@@H]1O[C@H](CO)[C@@H](O)[C@H](O)[C@H]1O` [2-propenylglucosinolate], which Km [3] is on record?
A: 613 µM

Q: And the Km [4]?
A: 420 µM

Q: What does the source list for `OC[C@H]1N[C@H](CO)[C@@H](O)[C@@H]1O` [DMDP, (2R, 5R)-dihydroxymethyl-(3R,4R)-dihydroxypyrrolidine]?
A: inhibition of aphid myrosinase [1]: effectively inhibited; inhibition of plant myrosinase [2]: effectively inhibited

Q: Which “inhibition of aphid myrosinase” value [1] does the source give for `OC[C@@H]1[C@@H](O)[C@H](O)[C@@H]2[C@@H](O)CCN21` [Alexine] here?
A: inhibited

Q: And the “inhibition of plant myrosinase” value [2]?
A: not significantly

Q: For `O=C1O[C@H](CO)[C@@H](O)[C@H](O)[C@H]1O` [D-glucono-β-lactone], which “inhibition of plant myrosinase” value (plant myrosinase) is on record?
A: poor inhibitors

Q: Which Ki [3] does the source give for `O=S(=O)(O)ON=C(Cc1ccccc1)S[C@@H]1O[C@H](CO)[C@@H](O)[C@H](O)[C@H]1F` [2-deoxy-2-fluoroglucotropaeolin] here?
A: extremely low

Q: What about the type of inhibition [3] of the same molecule?
A: competitively inhibited

Q: And the “inhibition of the enzyme” value [5]?
A: potent inhibitor

Q: With `O=S(=O)(O)O/N=C(\Cc1ccccc1)S[C@@H]1O[C@H](CO)[C@@H](O)[C@H](O)[C@H]1O` [benzyl glucosinolate] as the molecule, how does the Km [3] read?
A: 915 µM

Q: For `O=C1O[C@H]([C@@H](O)CO)C(O)=C1O` [ascorbate, ascorbic acid], which “inhibition of plant myrosinases” value (plant myrosinase; high concentrations) is on record?
A: inhibited

Q: And the “activation of plant myrosinases” value (plant myrosinase; low concentrations)?
A: activated

Q: What about the activation by ascorbate [6] of the same molecule?
A: not activated

Q: And the activation by ascorbate ([3]; concentration range 0.1-20 mM)?
A: not activated

Q: For `OC[C@H]1NC[C@@H](O)[C@@H]1O` [AB1, 1,4-dideoxy-1,4-imino-D-arabinitol], which “inhibition of aphid myrosinase” value [1] is on record?
A: inhibited

Q: What about the “inhibition of plant myrosinase” value [2] of the same molecule?
A: not significantly

Q: Which results are given for `O[C@H]1[C@H](O)[C@@H](O)CN2CC[C@H](O)[C@H]12` [castanospermine]?
A: inhibition of aphid myrosinase [1]: effectively inhibited; inhibition of plant myrosinase [2]: effectively inhibited

B1: Pure aphid myrosinase: myrosinase enzyme purified to homogeneity from Brevicoryne brassicae (SEQ ID NO. 1) (protein, listed as Brevicoryne brassicae)
chain: MDYKFPKDFMFGTSTASYQIEGGWNEDGKGENIWDRLVHTSPEVIKDGTNGDIACDSYHKYKEDVAIIKDLNLKFYRFSISWARIAPSGVMNSLEPKGIAYYNNLINELIKNDIIPLVTMYHWDLPQYLQDLGGWVNPIMSDYFKEYARVLFTYFGDRVKWWITFNEPIAVCKGYSIKAYAPNLNLKTTGHYLAGHTQLIAHGKAYRLYEEMFKPTQNGKISISISGVFFMPKNAESDDDIETAERANQFERGWFGHPVYKGDYPPIMKKWVDQKSKEEGLPWSKLPKFTKDEIKLLKGTADFYALNHYSSRLVTFGSDPNPNFNPDASYVTSVDEAWLKPNETPYIIPVPEGLRKLLIWLKNEYGNPQLLITENGYGDDGQLDDFEKISYLKNYLNATLQAMYEDKCNVIGYTVWSLLDNFEWFYGYSIHFGLVKIDFNDPQRTRTKRESYTYFKNVVSTGKP
Q: Which Specific activity [7] does the source give for B1 here?
A: 20.000 µmol/mg/min
